The text below walks through data of patent publication US20040115160A1, “Quaternary ammonium esters for disinfection and preservation” (priority 2002, published 2004).

Read-outs that look alike come from different tables or passages of the source. Bounds are passed on as bounds.

What all share (test): Stand-alone biocidal test without organic soil
Common to all, as to format: cell-based

For assay [1], the system named is Fusarium solani (ATCC 36031). Conditions: 25 ppm in BBS; for log reduction at 25 ppm: Fusarium solani, ATCC36031, without organic soil, read-out: Stand-alone biocidal result (microbial log reduction) F. solani. As for the experimental part:
(§1) A test was conducted to study the microbiocidal efficacy of a solution containing a quaternary ammonium ester of the present invention employing borate buffered saline (BBS). The antimicrobial efficacy of each of the various compositions for the chemical disinfection of contact lenses was evaluated. Microbial challenge inoculums were prepared using Pseudomonas aeruginosa (ATCC 9027), Staphylococcus aureus (ATCC 6538), Serratia marcescens (ATCC 13880), Candida albicans (ATCC 10231) and Fusarium solani (ATCC 36031). The test organisms were cultured on appropriate agar and the cultures were harvested using sterile DPBST (Dulbecco's Phosphate Buffered Saline plus 0.05 percent weight/volume polysorbate 80) or a suitable diluent and transferred to a suitable vessel. Spore suspensions were filtered through sterile glass wool to remove hyphal fragments. Serratia marcescens, as appropriate, was filtered through a 1.2 mμ filter to clarify the suspension. After harvesting, the suspension was centrifuged at no more than 5000×g for a maximum of 30 minutes at 20 to 25° C. The supernatant was poured off and resuspended in DPBST or other suitable diluent. The suspension was centrifuged a second time, and resuspended in DPBST or other suitable diluent. All challenge bacterial and fungal cell suspensions were adjusted with DPBST or other suitable diluent to 1×10^7 to 1×10^8 cfu/ml. The appropriate cell concentration may be estimated by measuring the turbidity of the suspension, for example, using a spectrophotometer at a preselected wavelength, for example 490 nm. One tube was prepared containing a minimum of 10 ml of test solution per challenge organism. Each tube of the solution to be tested was inoculated with a suspension of the test organism sufficient to provide a final count of 1×10^5 to 1×10^6 cfu/ml, the volume of the inoculum not exceeding 1 percent of the sample volume. Dispersion of the inoculum was ensured by vortexing the sample for at least 15 seconds. The inoculated product was stored at 10 to 25° C. Aliquots in the amount of 1.0 ml were taken of the inoculated product for determination of viable counts after certain time periods of disinfection. The time points for the bacteria were, for example, 1, 2, 3 and 4 hours when the proposed regimen soaking time was four hours. Yeast and mold were tested at an additional timepoint of 16 hours (4 times the regimen time). The suspension was mixed well by vortexing vigorously for at least 5 seconds. The 1.0 ml aliquots removed at the specified time intervals were subjected to a suitable series of decimal dilutions in validated neutralizing media. The suspensions were mixed vigorously and incubated for a suitable period of time to allow for neutralization of the microbial agent at room temperature. The viable count of organisms was determined in appropriate dilutions by preparation of triplicate plates of trypticase soy (TSA) agar for bacteria and Sabouraud dextrose agar (SDA) for mold and yeast. The bacterial recovery plates were incubated at 30 to 35° C. for two to four days. The yeast was incubated at 20 to 30° C. for two to four days and mold recovery plates were incubated at 20 to 25° C. for three to seven days. The average number of colony forming units was determined on countable plates. Countable plates refer to 30 to 300 cfu/plates for bacteria and yeast, and 8 to 80 cfu/plate for mold except when colonies are observed only for the 10^0 or 10^−1 dilution plates. The microbial reduction was then calculated at the specified time points. […] Following inoculation in a validated neutralizing broth and incubation for an appropriate period of time, the inoculum control must be between 1.0×10^5 to 1.0×10^6 cfu/ml. […]

For assay [2], the system named is Candida albicans (ATCC 10231). To be noted: 25 ppm in BBS; for log reduction at 25 ppm: Candida albicans, ATCC10231, without organic soil, read-out: Stand-alone biocidal result (microbial log reduction) C. albicans. The method, then:
as §1

For assay [3], the system named is Staphylococcus aureus (ATCC 6538). Conditions: 25 ppm in BBS; for Stand-alone biocidal result (microbial log reduction) S. aureus: without organic soil. The method, then: as §1
For assay [4], the system named is Pseudomonas aeruginosa (ATCC 9027). Conditions: 25 ppm in BBS; for Stand-alone biocidal result (microbial log reduction) P. aeruginosa: without organic soil. The method, then: as §1
Assay [5] deals with Serratia marcescens (ATCC 13880). Conditions: 25 ppm in BBS; for Stand-alone biocidal result (microbial log reduction) S. marcescens: without organic soil. As for the experimental part: as §1

As for `CCCCCCCCCCCCCCCCCC(=O)OCCC[N+](C)(C)C` [Compound 7, N-stearoyloxypropyl-N,N,N-trimethylammonium iodide], the log reduction at 25 ppm in assay [1] (1 hr.) is 2.9; in assay [1] (4 hr.) it was 3.5; in assay [2] (1 hr.), 0.7; in assay [2] (4 hr.), 2.5. The figures for the “Stand-alone biocidal result (microbial log reduction) S. aureus” value in assay [3] (1 hr.) and in assay [3] (4 hr.) were 3.5 and greater than 4.8, respectively. Also, the results for the “Stand-alone biocidal result (microbial log reduction) P. aeruginosa” value in assay [4] (1 hr.) and in assay [4] (4 hr.) were 2.0 and 3.3, respectively. The “Stand-alone biocidal result (microbial log reduction) S. marcescens” value in assay [5] (1 hr.) and in assay [5] (4 hr.) was “TNTC” each time.
Turning to `CCCCCCCCCCCCCC(=O)NCCC[N+](C)(C)C.[I-]` [N-myristamidopropyl-N,N,N-trimethylammonium iodide, reference compound], in assay [1], the “Effectiveness against F. solani (stand-alone biocidal data)” value (“Effectiveness against F. solani” below) is listed as “failed”. For the same compound, the “Effectiveness against C. albicans (stand-alone biocidal data)” value (shortened to “Effectiveness against C. albicans”) in assay [2] is “failed”. Further, the “Effectiveness against S. aureus (stand-alone biocidal data)” value (shortened to “Effectiveness against S. aureus”) in assay [3] is recorded as “proved effective”. The “Effectiveness against P. aeruginosa (stand-alone biocidal data)” value (“Effectiveness against P. aeruginosa” for short) in assay [4] was “proved effective”. Besides, the “Effectiveness against S. marcescens (stand-alone biocidal data)” value (“Effectiveness against S. marcescens” below) in assay [5] is given as “failed”.
In the case of `CCCCCCCCCCCCCC(=O)OCCCN(C)C` [N-myristoyloxypropyl-N,B-dimethylamine, reference compound], the “Effectiveness against F. solani” value in assay [1] is given as “failed to be effective”. Further, the “Effectiveness against C. albicans” value in assay [2] is “failed to be effective”. In assay [3], the “Effectiveness against S. aureus” value was “failed to be effective”. For the same compound, in assay [4], the “Effectiveness against P. aeruginosa” value was “failed to be effective”. Moreover, the “Effectiveness against S. marcescens” value in assay [5] was “failed to be effective”.
As for `CCCCCCCCCCCCCC(=O)OCCC[N+](C)(C)C` [Compound 5, N-myristoyloxypropyl-N,N,N-trimethylammonium iodide], the log reduction at 25 ppm in assay [1] (1 hr.) came out at 3.2; in assay [1] (4 hr.) it was 3.3; in assay [2] (1 hr.), 1.9; in assay [2] (4 hr.) it was 3.4. Moreover, the “Stand-alone biocidal result (microbial log reduction) S. aureus” value in assay [3] (1 hr.) and in assay [3] (4 hr.) was greater than 4.7 throughout. The “Stand-alone biocidal result (microbial log reduction) P. aeruginosa” value in assay [4] (1 hr.) and in assay [4] (4 hr.) was greater than 4.6 each time. Further, the “Stand-alone biocidal result (microbial log reduction) S. marcescens” value in assay [5] (1 hr.) was 3.4; in assay [5] (4 hr.), greater than 4.6.
In the case of `CCCCCCCCCCCC(=O)OCCC[N+](C)(C)C` [Compound 4, N-lauroyloxypropyl-N,N,N-trimethylammonium iodide], the log reduction at 25 ppm in assay [1] (1 hr.) was found to be 0.1; in assay [1] (4 hr.) it was 0.6; in assay [2] (1 hr.), 0; in assay [2] (4 hr.), 0.1. For the same compound, the “Stand-alone biocidal result (microbial log reduction) S. aureus” value in assay [3] (1 hr.) and in assay [3] (4 hr.) was “TNTC” throughout. The “Stand-alone biocidal result (microbial log reduction) P. aeruginosa” value in assay [4] (1 hr.) is 2.0; in assay [4] (4 hr.) it was 3.0. For the same compound, the “Stand-alone biocidal result (microbial log reduction) S. marcescens” value in assay [5] (1 hr.) and in assay [5] (4 hr.) was “TNTC” each time.
For `CCCCCCCCCCCCCC(=O)NCCCN(C)C` [N-myristamidopropyl-N,N-dimethylamine, reference compound], in assay [1], the “Effectiveness against F. solani” value was “effective”. Besides, the “Effectiveness against C. albicans” value in assay [2] is “effective”. Further, the “Effectiveness against S. aureus” value in assay [3] is “effective”. Moreover, in assay [4], the “Effectiveness against P. aeruginosa” value is “effective”. The “Effectiveness against S. marcescens” value in assay [5] is reported as “not effective”.
